Measurements from patent US4721707A, “Complex salt” (priority 1982, dated 1988).
“Also recorded” adds a separate entry of the source.

Legend:
[1] = Solubility of (+)-bis-(trimethaphan)-nitroprusside and its semihydrate (Example 1); format: physicochemical
Description: (§1) The semihydrate forms compact needles from water (1/2H2 O calculated 0.94%, found 1.00%). […] Its solubility in water is 0.2% at room temperature. Its solubility in 60% ethanol is much better, and is about 3% at room temperature.

blood pressure [2] = assay: Infusion dosage required to achieve a given lowering of the blood pressure in a cat under Nembutal narcosis (Table I, FIG. 4); format: in vivo; parameters: key to Infusion dosage required for lowering of blood pressure (symbol): *: Limit of activity and/or predominance of toxic side effects; conditions: for Infusion dosage required for lowering of blood pressure / Infusion dosage required for lowering of blood pressure (symbol): i.v. infusion
Description: This is evident, for example, from the following experiment:
The various infusion solutions listed below were infused i.v. in succession, with appropriate recovery intervals, into a male, spontaneously respiring cat weighing 3.7 kg under Nembutal narcosis, and the dosages required to achieve a given lowering of the blood pressure were determined.
For the preparation of the infusion solutions, the substances or their concentrated stock solutions were diluted with 0.9% sodium chloride solution to a uniform infusion strength of 9 mg/100 ml (90 ug/ml). All solutions were freshly prepared and infused with the exclusion of light (aluminium foil) corresponding to the dosages given below.
The values given in Table I hereinafter were determined graphically.
FIG. 4, a comparison of equieffective doses of A, B, C, D and E, is derived from the figures in Table I, and further indicates the unobvious superiority of infusion solutions having a weight ration of less than 1:10 of the salts.
On the Y-axis, the weight percent of the trimethaphan ion in trimethaphan camsylate needed to achieve the indicated level of hypotension reduction is always set at 100% for each level, indicating the infusion solution of C. The X-axis measures the weight of nitroprusside ion expressed as a weight percent of the trimethaphan ion needed; B, having no trimethaphan, is set at 0 weight percent. The percents for A, D, and E are as indicated.
The hypotenuse of the triangle indicates the hypotensive effect expected to result from using mixtures of nitroprusside and trimethaphan ions. […] The lower and more to the left the values are, the higher the degree of synergism.

[3] = format: physicochemical; conditions: room temperature; for storability: light excluded
Description: as §1
For the preparation of an infusion solution, the ampoule contents are dissolved in at least 220, at most 900 ml of sterile 0.9% sodium chloride solution or 5% glucose solution by vigorous shaking for a short time, whereafter the volume is brought to 250, 500 or 1000 ml. The infusion vessels and tubes are either to be covered with aluminum foil or must consist of material which is opaque to light.
50 mg of finely pulverized (+)-bis-(trimethaphan)-nitroprusside are filled into a sterilized, brown 5 ml flask closable with a synthetic stopper. 3 ml of 60% ethanol are sealed in a solvent ampoule and sterilized. […] Immediately before use the solid substance is dissolved in the solvent and the thus-obtained stock solution is used for the preparation of the infusion solution.

rats = conditions: i.v.; cited from earlier work
[4] = Solubility / dissolution of I and of mixtures of I and sodium thiosulphate pentahydrate; format: physicochemical; conditions: for solubility in weaker ethanol: weaker than 50% ethanol
Description: Mixtures of I and thiosulphate must not however, be heated in solution above 50° C., since otherwise the trimethaphan cation can decompose.
Therefore, the problem arose to find a physiologically acceptable solvent in which a mixture of I and thiosulphate in the weight ratio of about 1:1 to about 1:40 can dissolve to at least 5-10%, in a temperature range which for practical reasons should embrace temperatures between about 15° C. and about 35° C. Moreover, the concentrated solution should be able to dissolve without problem in the amount (250-1000 ml) of physiological sodium chloride solution or isotonic (5%) glucose solution required for final dilution.
For example, the mixture of 50 mg of I and 1000 mg of sodium thiosulphate pentahydrate dissolved

patients = conditions: infusion in patients; listed as TMC; cited from earlier work
blood pressure [5] = conditions: TMC; cited from earlier work
[6] = Solubility of SNP, TMC, TNP and mixtures (Example 10); format: physicochemical; conditions: for amount of solvent giving clear solution: 22° C., SNP 50 mg, TMC 250 mg; for solubility of mixtures / TNP: borderline amount of solvent: 50 + 500 mg (1 + 10)
Description: At room temperature (22° C.) clear solutions were obtained in the following solvents from the following compounds: […]

In the case of “(+)-bis-/(3aS,8aR,8bR)-1,3-dibenzyldecahydro-2-oxoimidazo[4,5-c]thieno[1,2-a]thiolium/nitrosylpentacyano-ferrate”, the “solubility in aqueous ethanol” value ([1]; aqueous ethanol) is reported as “dissolves readily”, the “solubility in water, absolute ethanol and cyclohexane” value ([1]; water, absolute ethanol and cyclohexane) is reported as “only very slightly soluble” and the “Infusion dosage required for lowering of blood pressure” value (blood pressure [2]; -20 mm Hg, cat) is reported as 1.5 ug/kg · min. The “Infusion dosage required for lowering of blood pressure” value (blood pressure [2]; -30 mm Hg, cat) was 2.3 ug/kg · min, the “Infusion dosage required for lowering of blood pressure” value (blood pressure [2]; -40 mm Hg, cat) was 3.5 ug/kg · min and the “Infusion dosage required for lowering of blood pressure” value (blood pressure [2]; -50 mm Hg, cat) was 5.8 ug/kg · min. The “Infusion dosage required for lowering of blood pressure” value (blood pressure [2]; -55 mm Hg, cat) was 7.8 ug/kg · min, the “Infusion dosage required for lowering of blood pressure” value (blood pressure [2]; -75 mm Hg, cat) was 40 ug/kg · min and the “limit of activity (in words)” value (blood pressure [2]; compared with all the other substances or mixtures) was “significantly higher limit of activity than all the other substances or mixtures”. For the same compound, the “strength of activity (in words)” value (blood pressure [2]; slight lowering of the blood pressure (to -30 mm Hg)) was “approximately comparable strengths of activity; also recorded: shows up best” and the storability [3] was “can be stored for a very long time”.

In the case of “bis-(trimethaphan)-nitroprusside semihydrate”, the “solubility in 60% ethanol” value ([1]; room temperature) is reported as “about 3%”, the solubility in water ([1]; room temperature) is reported as 0.2% and the stability at storage [3] is reported as “stable”. For the same compound, the “water loss at storage” value [3] was “does not lose water”.

In the case of `O=S([O-])([O-])=S.[Na+].[Na+]` [sodium thiosulphate, reference compound], the LD50 (rats) is listed as 2500 mg/kg, the “solubility in over 40% ethanol” value ([4]; especially at temperatures <50° C.) is listed as “only very limited solubility” and the “solubility in weaker ethanol” value [4] is listed as “better solubility”.

In the case of `O=C1N(Cc2ccccc2)C2C[S+]3CCCC3C2N1Cc1ccccc1` (stereo not shown) [C, trimethaphan camsylate, reference compound], the side effects (patients) is given as “tachycardia, mydriasis, cycloplegia, urine retention, xerostomia and constipation; also recorded: nausea or vomiting; also recorded: allergies”, the “Infusion dosage required for lowering of blood pressure” value (blood pressure [2]; -20 mm Hg, cat) is given as 6.0 ug/kg · min and the “Infusion dosage required for lowering of blood pressure” value (blood pressure [2]; -30 mm Hg, cat) is given as 18 ug/kg · min. The “Infusion dosage required for lowering of blood pressure” value (blood pressure [2]; -40 mm Hg, cat) was 55 ug/kg · min, the “Infusion dosage required for lowering of blood pressure (symbol)” value (blood pressure [2]; -50 mm Hg, cat) was “*” and the “Infusion dosage required for lowering of blood pressure (symbol)” value (blood pressure [2]; -55 mm Hg, cat) was “*”. For the same compound, the “Infusion dosage required for lowering of blood pressure (symbol)” value (blood pressure [2]; -75 mm Hg, cat) was “*”, the “activity compared with other test substances (in words)” value (blood pressure [2]; cat, comparison among A to E) was “significantly less active” and the limit of activity (blood pressure [2]; lowering of blood pressure, cat) was -40 mm Hg. The “dosage required for the controlled lowering of blood pressure” value (blood pressure [5]) was “about 30 ug/kg or more per minute”, the “amount of solvent giving clear solution” value ([6]; 5% dextrose) was 10 mL and the “amount of solvent giving clear solution” value ([6]; 40% ethanol) was 10 mL. The “amount of solvent giving clear solution” value ([6]; 60% ethanol) was 2 mL and the “amount of solvent giving clear solution” value ([6]; water) was 10 mL.

With bis-(trimethaphan)-nitroprusside the synergistic activity (blood pressure [2]; nitroprusside and trimethaphan ions in molar ratio 1:2, FIG. 4 / Table I) was “maximum synergistic activity”, the storability [3] was “can be stored without further additives” and the “solubility of mixtures / TNP: borderline amount of solvent” value (“solubility of mixtures / TNP” below) ([6]; 5% dextrose, 125 + 500 mg (1 + 4), TNP 40 mg (highly purified product)) was 100 mL. For the same compound, the “solubility of mixtures / TNP” value ([6]; 40% ethanol, TNP 40 mg) was 25 mL, the “solubility of mixtures / TNP” value ([6]; 60% ethanol, 125 + 500 mg (1 + 4), TNP 40 mg) was 2 mL and the “ethanol concentration required for concentrated stock solution” value ([4]; ethanol-water, room temperature (22° C.), FIG. 1) was “at least 40%”. For the same compound, the “solubility in water (in words)” value ([4]; water) was “poorly soluble in water” and the “solubility in weaker ethanol” value [4] was “no longer completely soluble”.
